Source: US20210045385A1, “PYRIDAZINONE-SUBSTITUTED KETOXIMES AS HERBICIDES” (FMC Corporation, priority 2018, published 2021)

Key:
Assay type in all cases: in vivo
[1] = tested on: Italian ryegrass (Lolium multiflorum); test: Test A preemergence, visual plant response rating; settings: for Ryegrass, Italian plant response rating: 125 g ai/ha, preemergence, 0 to 100 scale, 0 no effect, 100 complete control; for Ryegrass, Italian plant response rating (0 to 100 scale): 500 g ai/ha Preemergence, approx. 10 days
In short: (§1)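 Ratings use a 0–100 visual scale (100 = complete control) against untreated controls, scored about 10 days after greenhouse treatment. Test chemicals were formulated in surfactant-containing non-phytotoxic solvent and applied either as soil spray after planting (preemergence) or onto one- to two-leaf, 2–10 cm plants (postemergence).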

[2] = tested on: barnyardgrass (Echinochloa crus-galli); test: Test A preemergence, visual plant response rating; settings: for Barnyardgrass plant response rating: 125 g ai/ha, preemergence, 0 to 100 scale, 0 no effect, 100 complete control; for Barnyardgrass plant response rating (0 to 100 scale): 500 g ai/ha Preemergence, approx. 10 days
In short: as §1

[3] = tested on: foxtail, giant (giant foxtail, Setaria faberii); test: Test A preemergence, visual plant response rating; settings: for Foxtail, Giant plant response rating: 125 g ai/ha, preemergence, 0 to 100 scale, 0 no effect, 100 complete control; for Foxtail, Giant plant response rating (0 to 100 scale): 500 g ai/ha Preemergence, approx. 10 days
In short: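 Ratings 0–100 (100 = complete control), visual, vs untreated controls at ~10 days. Application pre- or postemergence; solvent mixture with surfactant; loam/sand medium.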

kochia (Kochia scoparia) [4] = test: Test A preemergence, visual plant response rating; settings: for Kochia plant response rating: 125 g ai/ha, preemergence, 0 to 100 scale, 0 no effect, 100 complete control; for Kochia plant response rating (0 to 100 scale): 500 g ai/ha Preemergence, approx. 10 days
In short: as §1

[5] = tested on: pigweed (Amaranthus retroflexus); test: Test A preemergence, visual plant response rating; settings: for Pigweed plant response rating: 125 g ai/ha, preemergence, 0 to 100 scale, 0 no effect, 100 complete control; for Pigweed plant response rating (0 to 100 scale): 500 g ai/ha Preemergence, approx. 10 days
In short: as §1

[6] = tested on: ragweed (common ragweed, Ambrosia elatior); test: Test A preemergence, visual plant response rating; settings: for Ragweed plant response rating: 125 g ai/ha, preemergence, 0 to 100 scale, 0 no effect, 100 complete control; for Ragweed plant response rating (0 to 100 scale): 500 g ai/ha Preemergence, approx. 10 days
In short: as §1

[7] = tested on: Italian ryegrass (Lolium multiflorum); test: Test A postemergence, visual plant response rating; settings: for Ryegrass, Italian plant response rating (0 to 100 scale): 500 g ai/ha, postemergence, 0 is no effect, 100 is complete control; for Ryegrass, Italian plant response rating: Postemergence, 125 g ai/ha, 0 to 100 scale (0 no effect, 100 complete control)
In short: as §1

[8] = tested on: barnyardgrass (Echinochloa crus-galli); test: Test A postemergence, visual plant response rating; settings: for Barnyardgrass plant response rating (0 to 100 scale): 500 g ai/ha, postemergence, 0 is no effect, 100 is complete control; for Barnyardgrass plant response rating: Postemergence, 125 g ai/ha, 0 to 100 scale (0 no effect, 100 complete control)
In short: as §1

[9] = tested on: blackgrass (Alopecurus myosuroides); test: Test A postemergence, visual plant response rating; settings: for Blackgrass plant response rating (0 to 100 scale): 500 g ai/ha, postemergence, 0 is no effect, 100 is complete control; for Blackgrass plant response rating: Postemergence, 125 g ai/ha, 0 to 100 scale (0 no effect, 100 complete control)
In short: as §1

corn (Zea mays) = test: Test A postemergence, visual plant response rating; settings: for Corn plant response rating (0 to 100 scale): 500 g ai/ha, postemergence, 0 is no effect, 100 is complete control; for Corn plant response rating: Postemergence, 125 g ai/ha, 0 to 100 scale (0 no effect, 100 complete control)
In short: as §1

[10] = tested on: foxtail, giant (giant foxtail, Setaria faberii); test: Test A postemergence, visual plant response rating; settings: for Foxtail, Giant plant response rating (0 to 100 scale): 500 g ai/ha, postemergence, 0 is no effect, 100 is complete control; for Foxtail, Giant plant response rating: Postemergence, 125 g ai/ha, 0 to 100 scale (0 no effect, 100 complete control)
In short: as §1

[11] = tested on: galium (catchweed bedstraw, Galium aparine); test: Test A postemergence, visual plant response rating; settings: for Galium plant response rating (0 to 100 scale): 500 g ai/ha, postemergence, 0 is no effect, 100 is complete control; for Galium plant response rating: Postemergence, 125 g ai/ha, 0 to 100 scale (0 no effect, 100 complete control)
In short: as §1

kochia (Kochia scoparia) [12] = test: Test A postemergence, visual plant response rating; settings: for Kochia plant response rating (0 to 100 scale): 500 g ai/ha, postemergence, 0 is no effect, 100 is complete control; for Kochia plant response rating: Postemergence, 125 g ai/ha, 0 to 100 scale (0 no effect, 100 complete control)
In short: as §1

[13] = tested on: pigweed (Amaranthus retroflexus); test: Test A postemergence, visual plant response rating; settings: for Pigweed plant response rating (0 to 100 scale): 500 g ai/ha, postemergence, 0 is no effect, 100 is complete control; for Pigweed plant response rating: Postemergence, 125 g ai/ha, 0 to 100 scale (0 no effect, 100 complete control)
In short: as §1

[14] = tested on: ragweed (common ragweed, Ambrosia elatior); test: Test A postemergence, visual plant response rating; settings: for Ragweed plant response rating (0 to 100 scale): 500 g ai/ha, postemergence, 0 is no effect, 100 is complete control; for Ragweed plant response rating: Postemergence, 125 g ai/ha, 0 to 100 scale (0 no effect, 100 complete control)
In short: as §1

[15] = tested on: wheat (Triticum aestivum); test: Test A postemergence, visual plant response rating; settings: for Wheat plant response rating (0 to 100 scale): 500 g ai/ha, postemergence, 0 is no effect, 100 is complete control; for Wheat plant response rating: Postemergence, 125 g ai/ha, 0 to 100 scale (0 no effect, 100 complete control)
In short: as §1

[16] = tested on: barnyardgrass (Echinochloa crus-galli); test: Test B flooded paddy test, visual plant response rating; settings: 250 g ai/ha, Flood, applied to paddy water, 2-leaf stage, evaluated after 13 to 15 days
In short: (§2)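 Flooded-pot treatment: water 3 cm over the soil, chemical delivered into that water, depth unchanged for the duration. Assessed by eye versus controls following 13–15 greenhouse days; plants were at 2 leaves when dosed.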

[17] = tested on: ducksalad (Heteranhera limosa); test: as above; settings: 250 g ai/ha, Flood, applied to paddy water, 2-leaf stage, evaluated after 13 to 15 days
In short: as §2

rice (Oryza sativa) = test: as above; settings: 250 g ai/ha, Flood, applied to paddy water, 2-leaf stage, evaluated after 13 to 15 days
In short: as §2

[18] = tested on: sedge, umbrella (small-flower umbrella sedge, Cyperus difformis); test: as above; settings: 250 g ai/ha, Flood, applied to paddy water, 2-leaf stage, evaluated after 13 to 15 days
In short: as §2

SMILES	Ryegrass, Italian plant response rating [1]	Ryegrass, Italian plant response rating (0 to 100 scale) [1]	Barnyardgrass plant response rating [2]	Barnyardgrass plant response rating (0 to 100 scale) [2]	Foxtail, Giant plant response rating [3]	Foxtail, Giant plant response rating (0 to 100 scale) [3]	Kochia plant response rating (kochia (Kochia scoparia) [4])	Kochia plant response rating (0 to 100 scale) (kochia (Kochia scoparia) [4])	Pigweed plant response rating [5]	Pigweed plant response rating (0 to 100 scale) [5]	Ragweed plant response rating [6]	Ragweed plant response rating (0 to 100 scale) [6]	Ryegrass, Italian plant response rating (0 to 100 scale) [7]	Ryegrass, Italian plant response rating [7]	Barnyardgrass plant response rating (0 to 100 scale) [8]	Barnyardgrass plant response rating [8]	Blackgrass plant response rating (0 to 100 scale) [9]	Blackgrass plant response rating [9]	Corn plant response rating (0 to 100 scale) (corn (Zea mays))	Corn plant response rating (corn (Zea mays))	other results
CO/N=C(\c1sccc1C)c1c(O)c(C)nn(C)c1=O [Compound 42]	0	20	0	0	0	0	0	10	0	20	60	80	70	50	10	0	0	0	0	0	Foxtail, Giant plant response rating (0 to 100 scale) [10]: 10; Foxtail, Giant plant response rating [10]: 0; Galium plant response rating (0 to 100 scale) [11]: 60; Galium plant response rating [11]: 70; Kochia plant response rating (0 to 100 scale) (kochia (Kochia scoparia) [12]): 50; Kochia plant response rating (kochia (Kochia scoparia) [12]): 20; Pigweed plant response rating (0 to 100 scale) [13]: 80; Pigweed plant response rating [13]: 60; Ragweed plant response rating (0 to 100 scale) [14]: 50; Ragweed plant response rating [14]: 40; Wheat plant response rating (0 to 100 scale) [15]: 0; Wheat plant response rating [15]: 0; Plant response rating, Barnyardgrass (0 to 100 scale, 0 is no effect, 100 is complete control) [16]: 15; Plant response rating, Ducksalad (0 to 100 scale, 0 is no effect, 100 is complete control) [17]: 20; Plant response rating, Rice (0 to 100 scale, 0 is no effect, 100 is complete control) (rice (Oryza sativa)): 10; Plant response rating, Sedge, Umbrella (0 to 100 scale, 0 is no effect, 100 is complete control) [18]: 20
CO/N=C(/c1ccccc1C(C)C)c1c(O)c(C)nn(C)c1=O [Compound 93]	20	70	0	50	10	30	0	0	0	20	0	0	80	40	20	10	70	0	10	10	Foxtail, Giant plant response rating (0 to 100 scale) [10]: 40; Foxtail, Giant plant response rating [10]: 30; Galium plant response rating (0 to 100 scale) [11]: 70; Galium plant response rating [11]: 60; Kochia plant response rating (0 to 100 scale) (kochia (Kochia scoparia) [12]): 30; Kochia plant response rating (kochia (Kochia scoparia) [12]): 0; Pigweed plant response rating (0 to 100 scale) [13]: 80; Pigweed plant response rating [13]: 50; Ragweed plant response rating (0 to 100 scale) [14]: 50; Ragweed plant response rating [14]: 10; Wheat plant response rating (0 to 100 scale) [15]: 10; Wheat plant response rating [15]: 0; Plant response rating, Barnyardgrass (0 to 100 scale, 0 is no effect, 100 is complete control) [16]: 0; Plant response rating, Ducksalad (0 to 100 scale, 0 is no effect, 100 is complete control) [17]: 65; Plant response rating, Rice (0 to 100 scale, 0 is no effect, 100 is complete control) (rice (Oryza sativa)): 0; Plant response rating, Sedge, Umbrella (0 to 100 scale, 0 is no effect, 100 is complete control) [18]: 0
CON=C(c1ccc(F)cc1C)c1c(O)c(C)nn(C)c1=O [Compound 41]	0	20	0	10	0	0	0	0	0	80	0	80	60	0	0	0	0	0	0	0	Foxtail, Giant plant response rating (0 to 100 scale) [10]: 0; Foxtail, Giant plant response rating [10]: 0; Galium plant response rating (0 to 100 scale) [11]: 70; Galium plant response rating [11]: 70; Kochia plant response rating (0 to 100 scale) (kochia (Kochia scoparia) [12]): 60; Kochia plant response rating (kochia (Kochia scoparia) [12]): 20; Pigweed plant response rating (0 to 100 scale) [13]: 90; Pigweed plant response rating [13]: 40; Ragweed plant response rating (0 to 100 scale) [14]: 60; Ragweed plant response rating [14]: 30; Wheat plant response rating (0 to 100 scale) [15]: 20; Wheat plant response rating [15]: 0; Plant response rating, Barnyardgrass (0 to 100 scale, 0 is no effect, 100 is complete control) [16]: 0; Plant response rating, Ducksalad (0 to 100 scale, 0 is no effect, 100 is complete control) [17]: 0; Plant response rating, Rice (0 to 100 scale, 0 is no effect, 100 is complete control) (rice (Oryza sativa)): 0; Plant response rating, Sedge, Umbrella (0 to 100 scale, 0 is no effect, 100 is complete control) [18]: 0
CON=C(c1cc(C)ccc1Cl)c1c(O)c(C)nn(C)c1=O [Compound 67]	0	10	0	0	0	0	0	10	0	0	10	10	20	10	0	0	30	0	0	0	Foxtail, Giant plant response rating (0 to 100 scale) [10]: 10; Foxtail, Giant plant response rating [10]: 0; Galium plant response rating (0 to 100 scale) [11]: 80; Galium plant response rating [11]: 70; Kochia plant response rating (0 to 100 scale) (kochia (Kochia scoparia) [12]): 20; Kochia plant response rating (kochia (Kochia scoparia) [12]): 20; Pigweed plant response rating (0 to 100 scale) [13]: 30; Pigweed plant response rating [13]: 0; Ragweed plant response rating (0 to 100 scale) [14]: 70; Ragweed plant response rating [14]: 50; Wheat plant response rating (0 to 100 scale) [15]: 0; Wheat plant response rating [15]: 0; Plant response rating, Barnyardgrass (0 to 100 scale, 0 is no effect, 100 is complete control) [16]: 0; Plant response rating, Ducksalad (0 to 100 scale, 0 is no effect, 100 is complete control) [17]: 0; Plant response rating, Rice (0 to 100 scale, 0 is no effect, 100 is complete control) (rice (Oryza sativa)): 0; Plant response rating, Sedge, Umbrella (0 to 100 scale, 0 is no effect, 100 is complete control) [18]: 0
